SMILES strings stand for the structures. Active and inactive are the calls of the source. The calls are words filed in the database; no cut-off is given here.

Data on one compound can be found in ChEMBL document CHEMBL2021800, “Aberrant cyclization affords a C-6 modified cyclic adenosine 5'-diphosphoribose analogue with biological activity in Jurkat T cells” (J Med Chem, 2012).

Common to all, as to format: functional, cell-based
Experiment [1] has as its system Jurkat. Kind of experiment: Inhibition of N1-cIDPR-induced Ca2+ release in human Jurkat T cells using fluo-3 dye by spectrofluorometry analysis.
Experiment [2] has as its system Jurkat. Kind of experiment: Induction of Ca2+ release in human Jurkat T cells at 10 to 30 uM using fluo-3 dye by spectrofluorometry analysis.
The subject of experiment [3] is Jurkat. Briefly: Induction of Ca2+ release in human Jurkat T cells at 100 to 300 uM using fluo-3 dye by spectrofluorometry analysis.
In experiment [4] the test system is Jurkat. Kind of experiment: Inhibition of cADPR-induced Ca2+ release in human Jurkat T cells using fluo-3 dye by spectrofluorometry analysis.

By IC50 is commonly meant the concentration needed to halve the response being measured. For `O=P1(O)OC[C@H]2O[C@H]([C@H](O)[C@@H]2O)n2cnc3c(ncn3[C@@H]3O[C@H](COP(=O)(O)O1)[C@@H](O)[C@H]3O)c2=S`, the IC50 in the experiment on Jurkat [1] is 3000 nM; with Jurkat [4], 30 µM. Also, the inhibition entry in the experiment on Jurkat [1] and in the experiment on Jurkat [4] was “Dose-dependent effect” each time. Moreover, in the experiment on Jurkat [2], the outcome was inactive. Further, in the experiment with Jurkat [3], the result was Active.
